How the values were obtained:
[1] = tested on: HepG2 cell line; assay: Staurosporine-induced apoptosis in HepG2 cells: caspase 3/7 activity; format: cell-based; details: Homo sapiens, 16 h pre-treatment, then 10 μM staurosporin for 4 h, p<0.001
Description: In order to evaluate the effect of the compounds to protect hepatocytes from cell death, apoptosis was induced by staurosporine in the human hepatoblastoma-derived HepG2 cell line (ECACC, #85011430, Sigma-Aldrich). HepG2 was cultured in high-glucose DMEM medium (#41965, Gibco, France) supplemented with 10% of fetal bovine serum (FBS, #10270, Gibco), 1% penicillin/streptomycin (#15140, Gibco), 1% sodium pyruvate (#11360, Gibco) and 1% MEM non-essential amino acids (#11140, Gibco) in a 5% CO2 incubator at 37° C.
To evaluate caspase 3/7 activity, which is a surrogate marker of apoptosis, 1.5×10^4 cells were plated in a 384-well plate (#781080, Greiner, France). After cell adherence (8 hours), cells were serum starved for 16h in the presence of compounds (dose ranging from 0.3 to 10 µM) or vehicle. Thereafter, cells were treated with 10 μM staurosporin (#569397, Sigma-Aldrich, Germany) supplemented with compound for additional 4 hours before cell lysis and caspase activity measurement.
Caspase 3/7 activity was measured using Caspase Glow™ 3/7 assay (#G8093, Promega, USA). Luminescence was measured using a Spark microplate reader (#30086376, Tecan, USA). The amount of luminescence (RLU) directly correlates with caspase 3/7 activity.

[2] = tested on: C57BL/6J male mice; assay: LPS/GalN mouse model of acute liver failure: serum hepatic markers and cytokines; format: in vivo; details: 1 mg/kg/day oral gavage for 3 days before LPS/GalN injection, serum 6 h after LPS/GalN, vs vehicle
Excerpt: Low doses of LPS in combination with the hepatotoxic agent D-Galactososamine (GalN) promote specific liver injury in mice and induce the inflammatory cytokines production, thus recapitulating the clinical picture of acute liver injury in human (Pourcet et al., Gastroenterology, 2018, 154 (5), p 1449-1464.e20). Hepatic injury induced by LPS/GalN is therefore a widely used mouse model to evaluate the effect of pharmacological agents on acute liver failure.
To evaluate the efficacy of the compounds on liver injury and function and the inflammatory response occurring upon acute liver failure, C57BL/6J male mice (8 weeks old, Janvier Labs) received an intraperitoneal injection of 0.025 mg/kg LPS (Escherichia coli 0111: B4, #L2630, Sigma-Aldrich) supplemented with 700 mg/kg D-Galactosamine (GalN, G0500, Sigma-Aldrich).
Cpd.1 (1 mg/kg/day) or vehicle (carboxymethylcellulose 1%, 0.1% Tween 80) was administered by oral gavage during the three days before LPS/GalN injection (n=10-12 per group). Mice were sacrificed 6h after LPS/GalN injection. Blood samples were obtained from retro-orbital sinus puncture on animals slightly asleep with isoflurane (Isoflurin 1000 mg/g, GTIN 03760087152678, Axience) just before sacrifice. A group of mice (n=4) received an intraperitoneal injection to be used as healthy controls.
Serum aspartate aminotransferase (ASAT) was measured using Randox kit for Daytona Plus automate (AS 8306) according to the manufacturer recommendation. ASAT enzymatically transforms alpha-oxoglutarate and L-aspartate into L-glutamate and oxaloacetate. In the presence of NADH, the generated oxaloacetate is converted by malate dehydrogenase to form L-malate and NAD+. The kinetics of the reaction is studied and allows the concentration of ASAT to be calculated.
Serum alanine aminotransferase (ALAT) was measured using Randox kit for Daytona Plus automate (AL 8304) according to the manufacturer recommendation. ALAT enzymatically transforms alpha-oxoglutarate and L-alanine into L-glutamate and pyruvate. In the presence of NADH, the generated pyruvate is converted by lactate dehydrogenase to form L-lactate and NAD+. The kinetics of the reaction is studied and allows the concentration of ALAT to be calculated.
Serum total bilirubin was measured using Randox kit for Daytona Plus automate (BR 8377) according to the manufacturer recommendation. The bilirubin is oxidized by vanadate at about pH 2.9 to produce biliverdin. In the presence of detergent and vanadate, both conjugate and unconjugated bilirubin are oxidized. This oxidation reaction causes a decrease in the optical density of the yellow color, which is specific to bilirubin. The decrease in optical density at 450/546 nm is proportional to the total bilirubin concentration in the sample.
Serum total bile acids were measured using Randox kit for Daytona Plus automate (BI 3863) according to the manufacturer recommendation. In the presence of Thio-NAD, the enzyme 3-α-hydroxysteroid dehydrogenase (3-α-HSD) converts bile acids to 3-keto steroids and Thio-NADH. In the presence of excess NADH, the enzyme cycling occurs efficiently and the rate of formation of Thio-NADH is determined by measuring specific change of absorbance at 405 nm.
The concentration of serum interleukin-6 (IL6) was determined using a multiplex sandwich ELISA system (Mouse Magnetic Luminex #LSXAMSM-06, Biotechne) according to the manufacturer instructions. […] After washing, IL6 was detected through the addition of biotinylated antibodies. […]

With `COc1ccc(OC(=O)N(CC(=O)O)Cc2ccc(OCCc3nc(-c4ccccc4)oc3C)cc2)cc1` [Cpd.2, N-[(4-methoxyphenoxy)carbonyl]-N-[[4-[2-(5-methyl-2-phenyl-4-oxazolyl)ethoxy]phenyl]methyl]glycine] the inhibition at 3 µM ([1]; 3 μM compound) was 24%.
In the case of `CCO[C@@H](Cc1ccc(OCCc2ccc(OS(C)(=O)=O)cc2)cc1)C(=O)O` [Cpd. 1, (S)-2-ethoxy-3-(4-(4-((methylsulfonyl)oxy)phenethoxy)phenyl) propanoic acid], the “reduction of total bilirubin” value ([2]; p=0.003) is reported as 73%, the “reduction of total bile acids” value ([2]; p=0.004) is reported as 79% and the “change of pro-inflammatory cytokine IL6 (serum)” value ([2]; p=0.01) is reported as −78%. The “decrease of serum ASAT” value ([2]; p=0.01) was 66%, the “decrease of serum ALAT” value ([2]; p=0.03) was 57% and the inhibition at 10 µM ([1]; 10 μM compound) was 12%.

Reference: patent US20260137661A1, “PPAR-ALPHA/GAMMA AGONIST FOR USE IN THE TREATMENT OF LIVER FAILURE” (Genfit, priority 2022, published 2026)
